In ChEMBL document CHEMBL1201862, “PubChem BioAssay data set” (2004):
Calls of active or inactive are those of the source.

Columns and labels:
[1] = molecular target: Bcl-2-like protein 10 (Homo sapiens, UniProt Q9HD36); test: Concentration-response of Bcl-B inhibitors by biochemical FP with TR3 (AID 1243); format: functional
[2] = molecular target: Paired box protein Pax-8 (Homo sapiens, UniProt Q06710); test: PAX8 transcriptional activity inhibition in RMG-I – RMG-I cells, luciferase, cherry-pick, dose response (AID 687027); format: functional, cell-based;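 note: luciferase reporter driven by Pax8 target thyroperoxidase promoter measured by SteadyGlo luminescence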
[3] = molecular target: Beta Lactamase (Pseudomonas aeruginosa, UniProt Q932Y6); test: BLA reporter interference, concentration series – BLA reporter cells, FRET fluorescence, artefact control for TLR9-MyD88 binding inhibitor project, dose response (AID 588341); format: cell-based;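 note: cell based assay in CHO-K1 cells stably expressing beta-lactamase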
[4] = microbe, parasite or virus in culture; format: functional; settings: Mycobacterium tuberculosis
[5] = Fluorescence-based cell-based high throughput dose response assay for inhibitors of the interaction of nucleotide-binding oligomerization domain containing 2 (NOD2) and the receptor-interacting serine-threonine kinase 2 (RIPK2).; format: functional; settings: Homo sapiens
[6] = general cell-killing toxicity readout – plate reader, dry powder samples, cytotoxicity control for PAX8 inhibitor project, dose response (AID 743021); format: functional, cell-based
[7] = Vero E6 cell cytotoxicity, dose response, cytotoxicity control for non-replicating M. tuberculosis project, secondary assay (AID 492998); format: functional, VeroE6; settings: Vero C1008
[8] = THP-1 cell cytotoxicity, dose response, cytotoxicity control for non-replicating M. tuberculosis project (AID 489025); format: functional
[9] = cells; format: functional
[10] = molecular target: Photoreceptor-specific nuclear receptor (Homo sapiens, UniProt Q9Y5X4); format: functional, cell-based;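 note: CHO-S cells with Gal4-NCOR and VP16-NR2E3 two-hybrid luciferase reporter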
[11] = tested on: CHO; test: CHO cell viability loss, potency – luminescence, cytotoxicity control for TLR9-MyD88 binding inhibitor project, dose response (AID 588339); format: functional, cell-based, hamster; settings: Cricetulus griseus;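 note: CHO cells stably coexpressing TLR9 and MyD88 fusions from primary screen; compound exposure lasted 48 hours before viability readout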
[12] = tested on: INS1; test: INS-1E survival protection against cytokine death – cell-based, luminescence, retest, dose response (AID 449756); format: functional; settings: Rattus norvegicus;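 note: cell death triggered by IL-1 beta plus TNF-alpha plus IFN-gamma mixture; protective hits raise ATP signal compared with cytokine alone wells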
[13] = viability of HCT116 lacking mutant beta-catenin – cell-based, human colon tumor, dose response (AID 1045); format: functional;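 note: HCT116 colon tumor cells with beta catenin knocked out; cells exposed to compound for 60 hours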
[14] = viability of PTEN-deleted HCT116 cells – cell-based, HCT116 PTEN knockout, dose response (AID 1047); format: functional;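 note: HCT116 colon tumor cells with PTEN knocked out; cells exposed to compound for 60 hours before readout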
[15] = tested on: HeLa; test: Cytotoxicity counterscreen assay for transcriptional activators of heat shock protein 70 (Hsp70). [Related pubchem assays: 1203, 1252 ]; format: functional; settings: Homo sapiens;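 note: cells exposed to compound for 16 hours before readout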
[16] = molecular target: T1, Estrogen receptor (Homo sapiens, UniProt P03372); test: ERα coactivator recruitment enhancers – biochemical, TR-FRET, ERα LBD, dose response (AID 737)
T1 sequence (P03372 whole entry): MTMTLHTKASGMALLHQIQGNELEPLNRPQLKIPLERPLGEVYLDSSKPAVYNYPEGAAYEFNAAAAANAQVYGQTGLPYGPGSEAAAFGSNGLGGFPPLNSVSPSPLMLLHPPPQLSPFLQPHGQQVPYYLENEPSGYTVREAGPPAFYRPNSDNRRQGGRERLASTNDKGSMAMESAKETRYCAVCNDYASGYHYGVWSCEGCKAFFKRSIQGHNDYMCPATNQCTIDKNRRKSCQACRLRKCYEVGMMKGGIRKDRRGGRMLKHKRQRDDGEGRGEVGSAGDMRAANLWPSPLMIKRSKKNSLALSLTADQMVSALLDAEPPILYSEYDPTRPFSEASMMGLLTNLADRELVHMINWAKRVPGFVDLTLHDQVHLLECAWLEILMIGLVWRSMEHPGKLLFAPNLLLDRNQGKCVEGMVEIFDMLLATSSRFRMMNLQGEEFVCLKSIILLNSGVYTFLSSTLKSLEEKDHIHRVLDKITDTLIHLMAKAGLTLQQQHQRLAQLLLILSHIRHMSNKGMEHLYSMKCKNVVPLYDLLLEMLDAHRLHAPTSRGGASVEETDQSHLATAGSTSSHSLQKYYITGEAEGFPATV

[17] = tested on: Streptococcus sp. 'group A'; test: Streptococcus pyogenes SK(-)GAS viability under kanamycin – luminescence, BacTiterGlo, confirmation, counter-screen for streptokinase expression inhibitor project, dose response (AID 1900); format: functional, organism-based
[18] = molecular target: T2, Streptokinase A (Streptococcus pyogenes serotype M1, UniProt P10520); test: viability-normalized secreted streptokinase activity reduction – plasminogen activation absorbance, OD405, dose response (AID 1914); format: functional, Streptococcus pyogenes M1 GAS;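 note: secreted streptokinase activity via plasminogen activation per viability signal from cell pellet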
T2 sequence (P10520 whole entry): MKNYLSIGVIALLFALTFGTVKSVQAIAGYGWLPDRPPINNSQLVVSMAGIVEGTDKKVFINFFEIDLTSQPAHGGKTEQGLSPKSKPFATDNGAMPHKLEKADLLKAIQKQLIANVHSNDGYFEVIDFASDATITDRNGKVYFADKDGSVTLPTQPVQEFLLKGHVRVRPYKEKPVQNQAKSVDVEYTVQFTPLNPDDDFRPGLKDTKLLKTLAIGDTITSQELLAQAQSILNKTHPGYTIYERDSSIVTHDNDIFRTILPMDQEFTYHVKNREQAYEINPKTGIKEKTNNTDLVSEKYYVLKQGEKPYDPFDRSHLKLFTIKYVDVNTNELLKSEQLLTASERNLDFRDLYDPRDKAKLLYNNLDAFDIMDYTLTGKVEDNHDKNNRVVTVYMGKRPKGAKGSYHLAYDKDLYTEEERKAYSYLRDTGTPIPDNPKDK

[19] = tested on: Streptococcus; test: GAS UMAA2166 growth inhibition – luminescence, BacTiterGlo, counter-screen for streptokinase expression inhibitor project, dose response (AID 1915); format: functional, organism-based;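 note: potency for reduction of bacterial viability or growth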
[20] = molecular target: NS3 (Hepatitis C virus, UniProt A3EZJ3); test: PubChem AID 2173; parameters: species or system Hepacivirus hominis
Chain of NS3 (A3EZJ3 whole entry): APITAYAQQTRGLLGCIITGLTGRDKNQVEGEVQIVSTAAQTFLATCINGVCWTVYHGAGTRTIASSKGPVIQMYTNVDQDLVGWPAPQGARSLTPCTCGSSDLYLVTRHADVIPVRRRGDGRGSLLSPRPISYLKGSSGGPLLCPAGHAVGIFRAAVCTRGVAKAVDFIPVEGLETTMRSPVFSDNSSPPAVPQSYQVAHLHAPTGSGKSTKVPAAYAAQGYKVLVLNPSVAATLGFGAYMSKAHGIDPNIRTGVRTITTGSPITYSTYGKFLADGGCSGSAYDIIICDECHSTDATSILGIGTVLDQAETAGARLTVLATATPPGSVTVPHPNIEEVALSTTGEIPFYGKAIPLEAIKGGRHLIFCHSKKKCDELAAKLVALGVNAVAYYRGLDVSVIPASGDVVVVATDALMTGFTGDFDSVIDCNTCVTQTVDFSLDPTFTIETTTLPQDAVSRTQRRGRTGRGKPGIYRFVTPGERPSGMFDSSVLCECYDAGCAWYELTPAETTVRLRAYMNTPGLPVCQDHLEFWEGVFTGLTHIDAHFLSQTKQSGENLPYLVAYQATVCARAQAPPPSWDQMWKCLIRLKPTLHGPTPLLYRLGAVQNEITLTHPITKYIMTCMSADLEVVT

Chain of Bcl-2-like protein 10 (Q9HD36 whole entry): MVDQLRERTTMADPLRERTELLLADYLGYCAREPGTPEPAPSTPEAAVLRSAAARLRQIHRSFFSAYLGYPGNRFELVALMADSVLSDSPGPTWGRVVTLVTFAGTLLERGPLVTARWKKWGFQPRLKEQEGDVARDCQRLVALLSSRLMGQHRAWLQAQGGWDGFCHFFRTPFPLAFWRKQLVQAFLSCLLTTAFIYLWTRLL
Chain of Paired box protein Pax-8 (Q06710 whole entry): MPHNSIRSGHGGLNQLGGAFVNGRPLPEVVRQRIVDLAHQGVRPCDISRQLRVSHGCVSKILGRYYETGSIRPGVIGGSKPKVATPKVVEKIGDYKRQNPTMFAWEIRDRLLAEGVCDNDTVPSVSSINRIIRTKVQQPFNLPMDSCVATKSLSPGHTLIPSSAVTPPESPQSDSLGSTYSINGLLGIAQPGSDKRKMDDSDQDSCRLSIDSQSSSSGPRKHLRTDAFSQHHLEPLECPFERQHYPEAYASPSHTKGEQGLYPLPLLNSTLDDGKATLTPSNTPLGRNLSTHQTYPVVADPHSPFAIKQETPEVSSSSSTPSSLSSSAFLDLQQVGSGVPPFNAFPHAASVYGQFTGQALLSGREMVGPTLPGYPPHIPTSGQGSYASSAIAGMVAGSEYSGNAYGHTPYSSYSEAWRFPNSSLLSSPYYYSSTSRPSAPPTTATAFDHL
Chain of Photoreceptor-specific nuclear receptor (Q9Y5X4 whole entry, the tested form may be a part): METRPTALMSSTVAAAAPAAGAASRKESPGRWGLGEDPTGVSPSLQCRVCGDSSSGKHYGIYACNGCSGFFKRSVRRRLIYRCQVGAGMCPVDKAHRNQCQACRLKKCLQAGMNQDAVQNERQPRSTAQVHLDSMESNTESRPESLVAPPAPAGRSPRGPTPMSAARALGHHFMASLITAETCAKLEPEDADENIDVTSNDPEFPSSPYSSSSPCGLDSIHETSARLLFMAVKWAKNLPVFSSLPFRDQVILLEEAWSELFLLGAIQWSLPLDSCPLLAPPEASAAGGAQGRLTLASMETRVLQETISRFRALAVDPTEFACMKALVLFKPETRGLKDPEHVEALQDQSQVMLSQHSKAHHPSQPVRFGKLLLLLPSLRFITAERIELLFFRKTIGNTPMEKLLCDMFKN
Chain of Beta Lactamase (Q932Y6 whole entry): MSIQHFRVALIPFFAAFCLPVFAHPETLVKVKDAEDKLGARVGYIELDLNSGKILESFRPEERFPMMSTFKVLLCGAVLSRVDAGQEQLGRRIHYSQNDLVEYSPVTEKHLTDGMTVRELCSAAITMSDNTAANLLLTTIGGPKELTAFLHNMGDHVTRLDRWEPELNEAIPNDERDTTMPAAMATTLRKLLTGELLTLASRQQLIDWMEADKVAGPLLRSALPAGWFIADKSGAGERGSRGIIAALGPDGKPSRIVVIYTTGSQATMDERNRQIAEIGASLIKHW

Cc1ccc(C)n1-c1ccc(C(=O)O)c(Cl)c1
EC50 [1]: 9.96 µM (active)

COc1cc(OC)nc(-n2ncc(Br)c(Br)c2=O)n1
AC50 [2]: 2.66 µM (active) | IC50 [3]: > 49.7 µM (inactive) | CC50 [4]: 1.98 µM (active) | IC50 [5]: 1.18 µM (active) | AC50 [6]: 20.6 µM (active) | CC50 [7]: 1.36 µM (active) | CC50 [8]: 0.402 µM (active) | IC50 [9]: 6.73 µM (active) | IC50 [10]: 2.69 µM (active) | IC50 [11]: 0.546 µM (active) | AC50 [12]: 6.03 µM (active) | EC50 [13]: < 0.059 µM (active) | EC50 [14]: < 0.059 µM (active) | CC50 [15]: > 1.22 µM (not active)

CC(Oc1ccc(Cl)cc1Cl)C(=O)Nc1ccc2oc(-c3ccncc3)nc2c1 (stereo not given)
EC50 [16]: 11.4 µM (active) | EC50 [17]: 8.75 µM (active) | EC50 [18]: > 150 µM (not active) | EC50 [19]: 9.54 µM (active)

CCC(C(=O)O)n1nnc(-c2ccc(-c3ccc(OC)cc3)cc2)n1 (stereo not given)
IC50 [20]: 8.42 µM (active)
